From ChEMBL document CHEMBL1201862, “PubChem BioAssay data set” (2004)
Active and inactive are the calls of the source.

Assays:
[1] = target: T1, Dual specificity protein phosphatase 3 (Homo sapiens, UniProt P51452); assay: SAR VHR1 Fluorescent Assay for In Vitro dose response studies Set 2. [Related pubchem assays (depositor defined):AID1654, AID1661, AID1878]; format: functional
[2] = target: T1, Dual specificity protein phosphatase 3; assay: SAR VHR1 Fluorescent Assay for In Vitro dose response studies. [Related pubchem assays (depositor defined):AID1654, AID1661, AID1878, AID1992, AID2004, AID2070, AID2085]; format: functional
[3] = target: T2, Tyrosine-protein phosphatase non-receptor type 7 (Homo sapiens, UniProt P35236); assay: redox-active compounds inhibiting HePTP phosphatase – biochemical, fluorescence, mechanism study (AID 2068); format: functional
T2 sequence (P35236 whole entry): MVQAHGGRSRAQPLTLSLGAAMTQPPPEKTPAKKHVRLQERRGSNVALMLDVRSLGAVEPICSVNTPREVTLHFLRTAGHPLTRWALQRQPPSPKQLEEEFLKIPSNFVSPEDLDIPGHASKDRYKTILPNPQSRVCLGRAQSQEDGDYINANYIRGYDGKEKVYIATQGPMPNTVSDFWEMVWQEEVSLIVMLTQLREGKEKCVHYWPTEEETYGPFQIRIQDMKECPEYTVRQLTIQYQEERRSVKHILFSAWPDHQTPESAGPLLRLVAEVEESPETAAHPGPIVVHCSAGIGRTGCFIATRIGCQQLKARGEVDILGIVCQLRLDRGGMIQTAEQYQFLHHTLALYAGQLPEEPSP

[4] = target: T3, Dual specificity protein phosphatase 6 (Rattus norvegicus, UniProt Q64346); format: functional;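 further: confirmatory in vitro dose-response testing of MKP-3 inhibition; recombinant His-tagged MKP-3 made in E. coli BL21 with OMFP substrate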
T3 sequence (Q64346 whole entry): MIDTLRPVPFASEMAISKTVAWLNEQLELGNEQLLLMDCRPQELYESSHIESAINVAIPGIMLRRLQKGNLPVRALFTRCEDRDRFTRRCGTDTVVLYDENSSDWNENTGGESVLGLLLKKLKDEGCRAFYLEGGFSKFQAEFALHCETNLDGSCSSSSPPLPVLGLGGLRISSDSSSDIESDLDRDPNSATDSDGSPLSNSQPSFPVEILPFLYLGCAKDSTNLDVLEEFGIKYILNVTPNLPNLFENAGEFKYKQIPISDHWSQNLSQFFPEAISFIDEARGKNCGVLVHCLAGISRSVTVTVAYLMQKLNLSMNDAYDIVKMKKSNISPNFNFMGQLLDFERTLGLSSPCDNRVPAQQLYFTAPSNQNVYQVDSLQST

[5] = target: T1, Dual specificity protein phosphatase 3; assay: SAR VHR1 absorbance Assay for In Vitro dose response studies. [Related pubchem assays (depositor defined):AID1654, AID1661, AID1878, AID1992, AID2004]
[6] = Luminescence Cell-Based Dose Retest to Confirm Activators of 5'UTR Stem-Loop Driven Alpha-Synuclein mRNA Translation in H4 Neuroglioblastoma Cells. [Related pubchem assays (depositor defined):AID1813, AID1829]; format: functional
[7] = luciferase reporter signal suppression in cells – H4 neuroglioma cells, luminescence, dose response (AID 1990); format: functional, cell-based
J774.A1 = assay: Confirmation of image-based Screening Assay for Inhibitors of Phagocytosis. [Related pubchem assays (depositor defined):AID1029, AID1643]; format: functional, cell-based; settings: Mus musculus
[8] = Luminescence Cell-Based Dose Confirmation HTS to Identify Inhibitors of 5'UTR Stem-Loop Driven Alpha-Synuclein mRNA Translation in H4 Neuroglioblastoma Cells. [Related pubchem assays: 1827 (Project Summary), 1813 (Primary HTS)]; format: functional
[9] = Luminescence Cell-Based Dose Response HTS to Identify Activators of Luciferase Translation or Activity in H4-C Neuroglioblastoma Cells. [Related pubchem assays: 1829 (Project Summary), 1814 (Primary HTS)]; format: functional
[10] = Luminescence Cell-Based Dose Response HTS to Identify Activators of 5'UTR Stem-Loop Driven Prion Protein mRNA Translation in H4-C Neuroglioblastoma Cells. [Related pubchem assays: 1829 (Project Summary), 1814 (Primary HTS)]; format: functional
[11] = alpha-synuclein stem-loop translation blockers – luminescence, H4 neuroglioblastoma cells, dose confirmation, confirmation (AID 2454); format: functional, cell-based;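 further: H4 neuroglioblastoma cells carrying an alpha-synuclein 5'UTR luciferase reporter; potency for inhibition of the luciferase signal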
cells = format: functional, cell-based
[12] = Luminescence Cell-Based Dose Response HTS to Identify Inhibitors of Luciferase Translation or Activity in H4-C Neuroglioblastoma Cells. [Related pubchem assays: 1813 (Primary HTS), 1827 (Project Summary)]; format: functional
[13] = Luminescence Cell-Based Dose Response HTS to Identify Inhibitors of 5'UTR Stem-Loop Driven Prion Protein mRNA Translation in H4 Neuroglioblastoma Cells. [Related pubchem assays: 1827 (Project Summary), 1813 (Primary HTS)]; format: functional
[14] = luciferase reporter signal reduction – luminescence, H4-C neuroglioblastoma cells, dose response (AID 2458); format: functional, cell-based;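 further: H4 neuroglioblastoma cells stably carrying a luciferase reporter gene fusion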
[15] = Luminescence Cell-Based Dose HTS Response to Identify Inhibitors of 5'UTR Stem-Loop Driven Prion Protein mRNA Translation in H4-C Neuroglioblastoma Cells. [Related pubchem assays (depositor defined):AID1814, AID1827]; format: functional
[16] = alpha-synuclein stem-loop luciferase translation blockers – H4 neuroglioma cells, luminescence, confirmation (AID 1988); format: functional, cell-based
[17] = target: Voltage-dependent T-type calcium channel subunit alpha-1H (Homo sapiens, UniProt O95180); assay: human CACNA1H calcium influx blockade – cell-based, synthetic library set 2, HEK293 HH8, Fluo-4, SAR follow-up (AID 493023); format: functional
Chain of Voltage-dependent T-type calcium channel subunit alpha-1H (O95180 whole entry): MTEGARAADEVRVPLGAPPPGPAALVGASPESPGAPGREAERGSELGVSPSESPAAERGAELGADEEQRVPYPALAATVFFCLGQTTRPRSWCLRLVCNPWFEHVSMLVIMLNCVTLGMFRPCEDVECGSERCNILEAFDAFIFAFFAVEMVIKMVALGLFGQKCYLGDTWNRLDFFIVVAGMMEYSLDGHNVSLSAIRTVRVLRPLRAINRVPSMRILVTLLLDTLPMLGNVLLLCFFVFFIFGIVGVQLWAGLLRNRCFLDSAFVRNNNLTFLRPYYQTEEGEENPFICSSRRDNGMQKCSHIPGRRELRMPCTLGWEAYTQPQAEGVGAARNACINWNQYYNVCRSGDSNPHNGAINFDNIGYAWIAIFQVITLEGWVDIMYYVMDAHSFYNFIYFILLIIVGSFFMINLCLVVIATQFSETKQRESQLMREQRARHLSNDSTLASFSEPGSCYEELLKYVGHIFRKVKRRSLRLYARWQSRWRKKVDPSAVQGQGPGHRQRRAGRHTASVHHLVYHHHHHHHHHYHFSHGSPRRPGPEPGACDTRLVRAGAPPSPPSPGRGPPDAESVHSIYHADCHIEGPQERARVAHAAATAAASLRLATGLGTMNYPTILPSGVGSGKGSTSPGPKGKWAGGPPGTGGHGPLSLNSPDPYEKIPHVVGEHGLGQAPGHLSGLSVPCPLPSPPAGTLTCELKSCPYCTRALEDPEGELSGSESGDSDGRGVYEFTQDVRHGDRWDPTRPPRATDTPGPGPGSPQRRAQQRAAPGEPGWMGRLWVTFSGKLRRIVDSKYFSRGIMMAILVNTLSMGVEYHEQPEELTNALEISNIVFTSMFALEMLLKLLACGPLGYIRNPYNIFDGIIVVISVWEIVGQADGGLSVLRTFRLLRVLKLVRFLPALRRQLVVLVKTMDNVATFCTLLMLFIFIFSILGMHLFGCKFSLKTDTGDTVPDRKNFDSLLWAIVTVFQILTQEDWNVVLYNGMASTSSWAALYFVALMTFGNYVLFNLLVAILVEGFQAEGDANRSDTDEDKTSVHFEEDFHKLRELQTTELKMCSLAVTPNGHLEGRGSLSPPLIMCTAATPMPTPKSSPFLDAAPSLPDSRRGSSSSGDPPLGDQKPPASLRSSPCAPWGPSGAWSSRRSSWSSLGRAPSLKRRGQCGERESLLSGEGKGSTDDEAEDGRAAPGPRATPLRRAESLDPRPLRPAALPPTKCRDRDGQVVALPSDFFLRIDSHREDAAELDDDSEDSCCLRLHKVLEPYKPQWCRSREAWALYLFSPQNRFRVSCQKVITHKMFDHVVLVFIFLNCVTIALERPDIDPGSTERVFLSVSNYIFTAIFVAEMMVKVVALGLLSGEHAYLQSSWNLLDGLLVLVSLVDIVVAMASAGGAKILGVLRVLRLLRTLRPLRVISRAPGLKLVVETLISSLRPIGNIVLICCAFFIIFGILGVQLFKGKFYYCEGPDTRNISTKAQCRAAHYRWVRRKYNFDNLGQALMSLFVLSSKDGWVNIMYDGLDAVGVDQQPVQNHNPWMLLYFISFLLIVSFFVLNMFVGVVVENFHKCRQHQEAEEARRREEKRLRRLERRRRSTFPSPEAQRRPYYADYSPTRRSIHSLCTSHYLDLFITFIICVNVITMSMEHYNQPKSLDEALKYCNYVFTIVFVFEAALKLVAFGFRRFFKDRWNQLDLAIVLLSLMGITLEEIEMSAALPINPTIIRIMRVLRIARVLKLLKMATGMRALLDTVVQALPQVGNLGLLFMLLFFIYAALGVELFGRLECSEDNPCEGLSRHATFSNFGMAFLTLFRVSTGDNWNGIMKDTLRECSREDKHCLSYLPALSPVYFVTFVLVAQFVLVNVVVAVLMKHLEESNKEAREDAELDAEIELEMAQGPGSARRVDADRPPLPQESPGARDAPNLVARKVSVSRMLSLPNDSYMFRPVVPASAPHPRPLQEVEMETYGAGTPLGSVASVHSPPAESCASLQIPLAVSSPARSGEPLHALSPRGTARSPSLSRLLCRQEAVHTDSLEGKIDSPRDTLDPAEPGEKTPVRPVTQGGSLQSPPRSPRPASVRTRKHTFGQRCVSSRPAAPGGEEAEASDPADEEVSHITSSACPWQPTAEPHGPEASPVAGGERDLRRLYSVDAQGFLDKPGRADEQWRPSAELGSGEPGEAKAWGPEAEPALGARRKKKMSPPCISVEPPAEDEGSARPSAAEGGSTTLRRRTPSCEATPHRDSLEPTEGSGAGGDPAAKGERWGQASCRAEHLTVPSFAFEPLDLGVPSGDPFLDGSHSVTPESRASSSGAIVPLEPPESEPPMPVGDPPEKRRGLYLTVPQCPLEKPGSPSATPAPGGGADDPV

Coagulation factor XII = target: T4, Coagulation factor XII (Homo sapiens, UniProt P00748); assay: Factor XIIa Dose Response Confirmation from Single Well HTS. [Related pubchem assays (depositor defined):AID701]; format: functional
T4 sequence (P00748 whole entry): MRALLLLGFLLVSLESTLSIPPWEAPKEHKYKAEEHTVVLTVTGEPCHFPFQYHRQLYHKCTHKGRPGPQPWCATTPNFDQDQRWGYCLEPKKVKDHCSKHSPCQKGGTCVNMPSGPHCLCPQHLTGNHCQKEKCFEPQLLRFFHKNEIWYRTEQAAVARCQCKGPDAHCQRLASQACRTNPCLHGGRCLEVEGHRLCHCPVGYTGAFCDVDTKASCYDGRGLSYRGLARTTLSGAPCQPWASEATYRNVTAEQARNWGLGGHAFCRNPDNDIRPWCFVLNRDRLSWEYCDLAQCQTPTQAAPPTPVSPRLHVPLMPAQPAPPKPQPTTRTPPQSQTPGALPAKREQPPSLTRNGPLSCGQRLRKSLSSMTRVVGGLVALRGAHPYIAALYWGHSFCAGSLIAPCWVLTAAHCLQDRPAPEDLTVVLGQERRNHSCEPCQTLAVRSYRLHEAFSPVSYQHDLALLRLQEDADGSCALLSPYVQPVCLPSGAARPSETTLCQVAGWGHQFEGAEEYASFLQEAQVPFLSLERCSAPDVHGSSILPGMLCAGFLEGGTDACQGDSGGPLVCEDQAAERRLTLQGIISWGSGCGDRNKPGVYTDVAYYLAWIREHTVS

[18] = target: T5, Replicative DNA helicase DnaB (Mycobacterium tuberculosis, UniProt P9WMR3); assay: DnaB intein splicing inhibitors, dose response, biochemical, cell-free fluorescence (AID 449749); format: functional
T5 sequence (P9WMR3 whole entry): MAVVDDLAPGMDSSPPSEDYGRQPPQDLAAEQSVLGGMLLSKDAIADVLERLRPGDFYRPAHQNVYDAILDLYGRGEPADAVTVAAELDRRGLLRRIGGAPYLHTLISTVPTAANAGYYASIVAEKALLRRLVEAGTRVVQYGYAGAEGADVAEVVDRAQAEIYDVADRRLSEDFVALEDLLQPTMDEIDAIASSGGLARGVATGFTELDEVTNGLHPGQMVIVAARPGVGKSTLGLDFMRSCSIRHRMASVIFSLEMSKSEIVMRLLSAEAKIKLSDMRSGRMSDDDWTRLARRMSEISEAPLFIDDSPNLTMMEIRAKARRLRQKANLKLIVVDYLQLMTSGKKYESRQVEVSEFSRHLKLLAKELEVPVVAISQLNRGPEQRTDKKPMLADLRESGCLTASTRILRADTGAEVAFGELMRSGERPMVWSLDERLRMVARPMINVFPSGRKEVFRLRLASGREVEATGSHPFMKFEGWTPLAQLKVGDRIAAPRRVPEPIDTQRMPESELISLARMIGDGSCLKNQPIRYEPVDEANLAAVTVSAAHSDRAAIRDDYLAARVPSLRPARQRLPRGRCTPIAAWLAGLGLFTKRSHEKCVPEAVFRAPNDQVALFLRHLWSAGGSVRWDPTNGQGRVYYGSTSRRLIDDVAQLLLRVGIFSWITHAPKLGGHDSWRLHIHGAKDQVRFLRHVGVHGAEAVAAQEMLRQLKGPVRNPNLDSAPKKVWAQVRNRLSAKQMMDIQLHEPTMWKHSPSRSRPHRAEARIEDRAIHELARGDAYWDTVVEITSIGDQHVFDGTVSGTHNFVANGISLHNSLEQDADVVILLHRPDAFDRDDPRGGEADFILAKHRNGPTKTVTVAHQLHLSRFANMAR

Protein RecA = target: T6, Protein RecA (Mycobacterium tuberculosis, UniProt P9WHJ3); assay: Fluorescence Cell-Free Homogeneous Dose Retest to Identify Inhibitors of RecA-Intein Splicing Activity. [Related pubchem assays (depositor defined):AID2097, AID2223, AID489010, AID492950]; format: functional
T6 sequence (P9WHJ3 whole entry): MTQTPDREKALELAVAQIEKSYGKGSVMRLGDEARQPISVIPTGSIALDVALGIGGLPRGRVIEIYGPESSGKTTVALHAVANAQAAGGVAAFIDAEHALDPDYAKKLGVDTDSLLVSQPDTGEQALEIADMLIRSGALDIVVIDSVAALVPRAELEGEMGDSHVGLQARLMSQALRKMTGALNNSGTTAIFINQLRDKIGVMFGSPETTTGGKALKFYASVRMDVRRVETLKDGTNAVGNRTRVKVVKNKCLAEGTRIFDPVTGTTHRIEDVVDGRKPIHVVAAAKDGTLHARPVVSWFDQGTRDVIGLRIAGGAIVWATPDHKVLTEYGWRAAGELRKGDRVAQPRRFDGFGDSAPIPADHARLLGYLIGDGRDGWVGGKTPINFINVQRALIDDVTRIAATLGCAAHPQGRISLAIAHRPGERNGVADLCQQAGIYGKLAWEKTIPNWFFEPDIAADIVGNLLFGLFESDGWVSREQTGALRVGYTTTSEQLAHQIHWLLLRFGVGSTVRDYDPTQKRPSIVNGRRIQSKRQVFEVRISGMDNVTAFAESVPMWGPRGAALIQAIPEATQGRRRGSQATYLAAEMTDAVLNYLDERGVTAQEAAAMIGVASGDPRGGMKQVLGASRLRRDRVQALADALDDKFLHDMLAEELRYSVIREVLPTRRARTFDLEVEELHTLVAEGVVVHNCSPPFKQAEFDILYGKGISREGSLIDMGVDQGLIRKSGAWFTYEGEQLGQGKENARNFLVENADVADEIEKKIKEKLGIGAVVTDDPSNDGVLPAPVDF

T1 sequence (P51452 whole entry): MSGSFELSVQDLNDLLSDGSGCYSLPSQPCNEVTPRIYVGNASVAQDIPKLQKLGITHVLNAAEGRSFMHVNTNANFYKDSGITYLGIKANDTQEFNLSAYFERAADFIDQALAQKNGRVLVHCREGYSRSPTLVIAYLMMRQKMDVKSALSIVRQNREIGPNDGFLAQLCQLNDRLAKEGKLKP

NS(=O)(=O)c1cc(C(=O)NC2CCCc3ccccc32)ccc1Cl (configuration not stated)
IC50 [1]: > 100 µM (inactive) | IC50 [2]: > 100 µM (inactive) | IC50 [3]: > 100 µM (inactive) | IC50 [4]: > 100 µM (inactive) | IC50 [5]: > 100 µM (inactive)

N#CC1=C(N)Oc2c(ccc3ccccc23)C1c1cccs1 (configuration not stated)
EC50 [6]: 9.28 µM (inconclusive) | EC50 [7]: 5.47 µM (inconclusive) | IC50 (J774.A1): 1.86 µM (active) | EC50 [8]: 9.28 µM (active) | EC50 [9]: 0.246 µM (inconclusive) | EC50 [10]: 0.162 µM (inconclusive) | EC50 [11]: 0.739 µM (active) | EC50 (cells): 0.885 µM (active) | EC50 [12]: 0.246 µM (active) | EC50 [13]: 9.47 µM (active) | EC50 [14]: 0.474 µM (active) | EC50 [15]: 0.162 µM (active) | EC50 [16]: < 0.1 µM (active)

CC(C)(C)CCN1CCC[C@@H](NC(=O)COc2ccc(F)cc2Cl)C1
EC50 [17]: 10 µM (active)

O=C(Oc1cccc(-n2cnnn2)c1)c1ccco1
IC50 (Coagulation factor XII): 12.4 µM (active) | AC50 [18]: 23.8 µM (active) | EC50 (Protein RecA): 15.1 µM (active)
